# Where “and” joins values, the source holds several entries; their conditions need not be identical. Equal values may be shown once.
# How the values were obtained:
# R12 domain of RyR1 = target: T1, R12 domain of RyR1 (Homo sapiens, UniProt P21817); experiment: ITC, R12 domain of RyR1; format: binding
# T1 construct: RyR1 854–1054, RyR2 865–1065, RyR3 853–1053; made in house; host or cells: E. coli BL21 (DE3)
# T1 sequence (P21817 854-1054): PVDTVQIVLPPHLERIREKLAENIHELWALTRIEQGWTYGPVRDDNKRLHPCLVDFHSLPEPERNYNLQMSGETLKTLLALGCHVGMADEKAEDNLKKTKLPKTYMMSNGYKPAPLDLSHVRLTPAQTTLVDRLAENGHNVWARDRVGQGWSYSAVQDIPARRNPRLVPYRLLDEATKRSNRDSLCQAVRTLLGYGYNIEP
# Description: (§1) The plasmids were subsequently transformed into E. coli BL21 (DE3) cells (NEB, USA) and cultured in Luria-Bertani (LB) media at 37 °C. Protein expression was induced with 0.4 mM isopropyl β-D-thiogalactoside (IPTG) when the optical density (OD)600 reached ~0.8, followed by incubation at 18 °C for 12 h. The cells were harvested via centrifugation at 5,000 × g for 15 min at 4 °C and homogenized in Buffer A (10 mM HEPES, pH 7.4, 250 mM KCl) supplemented with 25 µg/mL DNaseI, 25 µg/mL lysozyme, 1 mM phenylmethylsulfonyl fluoride (PMSF), and 20 mM imidazole. The homogenate was centrifuged at 12,000 × g for 45 min, and the supernatant was filtered through a syringe filter (0.22 µm).
# (§2) Purified R12 domain protein from the three RyR isoforms, fused with hexahistidine-tagged MBP (HMT-R12) was dialyzed overnight at 4 °C in ITC buffer (200 mM HEPES, pH 7.4, 150 mM KCl). ITC experiments were performed using a PEAQ-ITC instrument (Malvern, UK) at 25 °C with a stirring speed of 750 rpm. […] For the ternary binding experiments, 500 μM or 5 mM AMP-PCP/ADP was preincubated with both the titrants and titrates. […] The data was fit to a one-site fitting model after background buffer subtraction. The RyR1 R12 mutants were generated using a QuikChange mutagenesis kit (Stratagene) according to the manufacturer’s protocol, with primer sequences listed in Supplementary Table 3.
# RyR1 R2163C = target: T2, RyR1 R2163C (Oryctolagus cuniculus, UniProt P11716, R2163C); experiment: Time-lapse [Ca2+]ER measurement, HEK293 cells expressing RyR1 R2163C; format: cell-based; conditions: for ER luminal [Ca2+] change (F/F0): Fig. 5D source data, RyR1-R2163C
# T2 construct: expressed in transfected cells
# Description: HEK293 cells stably expressing R-CEPIA1er and RyRs (WT RyR1, RyR1-W881A, RyR1-W995A, RyR1-R2163C, and WT RyR2)[26],[27] were used in this study. Briefly, the cells were seeded at a density of 2 × 10⁴ cells/well in a 96-well black, clear-bottom plate (Corning). Doxycycline (2 µg/mL) was added 12 h after seeding, and the medium was replaced 24 h later with HEPES-buffered Krebs solution (5 mM HEPES, pH 7.4; 140 mM NaCl; 5 mM KCl; 2 mM CaCl₂; 1 mM MgCl₂; and 11 mM glucose). Fluorescence measurements were conducted using a FlexStation 3 fluorometer (Molecular Devices) at 37 °C. The R-CEPIA1er was excited at 560 nm, emitted at 610 nm, and captured every 10 seconds over 300 seconds. […] The fluorescence changes (F/F₀) were calculated by dividing the average fluorescence of the last 100 seconds (F) by that of the first 100 seconds (F₀). All measurements were performed in triplicate.
# R12 domain of RyR2 = target: T3, R12 domain of RyR2 (Homo sapiens, UniProt Q92736); experiment: ITC, R12 domain of RyR2; format: binding; conditions: absence or presence of AMP-PCP or ADP
# T3 construct: RyR1 854–1054, RyR2 865–1065, RyR3 853–1053; made in house; host or cells: E. coli BL21 (DE3)
# T3 sequence (Q92736 865-1065): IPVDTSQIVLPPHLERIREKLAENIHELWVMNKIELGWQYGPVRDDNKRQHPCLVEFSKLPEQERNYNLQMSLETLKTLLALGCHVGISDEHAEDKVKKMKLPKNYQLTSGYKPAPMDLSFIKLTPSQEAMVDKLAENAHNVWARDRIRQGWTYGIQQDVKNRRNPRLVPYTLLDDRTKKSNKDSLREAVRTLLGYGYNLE
# Description: as §1, §2
# R12 domain of RyR3 = target: T4, R12 domain of RyR3 (Homo sapiens, UniProt Q15413); experiment: ITC, R12 domain of RyR3; format: binding
# T4 construct: RyR1 854–1054, RyR2 865–1065, RyR3 853–1053; made in house; host or cells: E. coli BL21 (DE3)
# T4 sequence (Q15413 853-1053): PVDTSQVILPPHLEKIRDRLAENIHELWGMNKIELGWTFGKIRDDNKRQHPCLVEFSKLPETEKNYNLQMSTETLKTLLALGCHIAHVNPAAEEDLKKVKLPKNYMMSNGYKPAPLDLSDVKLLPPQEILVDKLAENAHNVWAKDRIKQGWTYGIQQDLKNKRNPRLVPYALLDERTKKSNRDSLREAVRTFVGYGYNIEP
# Description: as §1, §2
smiles,measurement,setting,value
O=C(C[C@@H](NCCCO)C(=O)O)Nc1ccc2ccccc2c1 [RI-2],Kd,R12 domain of RyR1; RyR1 R12 + 500 µM ADP,49.1 ± 50.1 µM
same,No of Sites (N),R12 domain of RyR1; RyR1 R12 + 500 µM ADP,0.605 ± 0.21
same,ΔH,R12 domain of RyR1; RyR1 R12 + 500 µM ADP,-12.9 ± 0.837 kJ/mol
same,−TΔS,R12 domain of RyR1; RyR1 R12 + 500 µM ADP,-18 kJ/mol
same,Kd,R12 domain of RyR1; RyR1 R12 + 500 µM AMP-PCP,1.75 ± 0.29 µM
same,No of Sites (N),R12 domain of RyR1; RyR1 R12 + 500 µM AMP-PCP,0.721 ± 0.12
same,ΔH,R12 domain of RyR1; RyR1 R12 + 500 µM AMP-PCP,-22.9 ± 0.711 kJ/mol
same,−TΔS,R12 domain of RyR1; RyR1 R12 + 500 µM AMP-PCP,-10 kJ/mol
same,Kd,R12 domain of RyR1; RyR1 R12 + 5 mM ADP,3.86 ± 0.975 µM
same,No of Sites (N),R12 domain of RyR1; RyR1 R12 + 5 mM ADP,0.912 ± 0.43
same,ΔH,R12 domain of RyR1; RyR1 R12 + 5 mM ADP,-63.14 ± 48.53 kJ/mol
same,−TΔS,R12 domain of RyR1; RyR1 R12 + 5 mM ADP,42.3 kJ/mol
same,Kd,R12 domain of RyR1; RyR1 R12 + 5 mM AMP-PCP,0.56 ± 0.17 µM
same,No of Sites (N),R12 domain of RyR1; RyR1 R12 + 5 mM AMP-PCP,0.547 ± 0.43
same,ΔH,R12 domain of RyR1; RyR1 R12 + 5 mM AMP-PCP,-29.5 ± 2.89 kJ/mol
same,−TΔS,R12 domain of RyR1; RyR1 R12 + 5 mM AMP-PCP,-0.46 kJ/mol
same,No of Sites (N),"R12 domain of RyR1; RyR1 R12, no nucleotide",0.519 ± 0.25
same,ΔH,"R12 domain of RyR1; RyR1 R12, no nucleotide",-23.5 ± 3.05 kJ/mol
same,−TΔS,"R12 domain of RyR1; RyR1 R12, no nucleotide",3.95 kJ/mol
same,Kd,"R12 domain of RyR1; RyR1 R12, no nucleotide, ITC 25 °C",159 µM and 158 µM
same,[Ca2+]ER change (F/F0),"RyR1 R2163C; 100 µM compound, compared with 2.5% DMSO, Fig. S10 source data, single replicates",1.393 and 1.514 and 1.475
same,ER luminal [Ca2+] change (F/F0),"RyR1 R2163C; RI-2 0.1 uM, single replicates",0.9503 and 1.0903 and 0.9717
same,ER luminal [Ca2+] change (F/F0),"RyR1 R2163C; RI-2 0.5 uM, single replicates",0.9981 and 0.9736 and 1.043
same,ER luminal [Ca2+] change (F/F0),"RyR1 R2163C; RI-2 1 uM, single replicates",1.073 and 0.9956 and 0.9903
same,ER luminal [Ca2+] change (F/F0),"RyR1 R2163C; RI-2 5 uM, single replicates",1.035 and 0.9806 and 0.9738
same,ER luminal [Ca2+] change (F/F0),"RyR1 R2163C; RI-2 10 uM, single replicates",1.082 and 1.203 and 1.117
same,ER luminal [Ca2+] change (F/F0),"RyR1 R2163C; RI-2 25 uM, single replicates",1.365 and 1.221 and 1.3399
same,ER luminal [Ca2+] change (F/F0),"RyR1 R2163C; RI-2 50 uM, single replicates",1.514 and 1.709 and 1.462
same,ER luminal [Ca2+] change (F/F0),"RyR1 R2163C; RI-2 75 uM, single replicates",1.641 and 1.709 and 1.614
same,ER luminal [Ca2+] change (F/F0),"RyR1 R2163C; RI-2 100 uM, single replicates",1.752 and 1.723 and 1.637
same,IC50,"RyR1 R2163C; HEK293 cells stably expressing RyR1 R2163C, ER Ca2+ fluorescence, dose-dependent",28 µM
same,binding to RyR2 R12 domain by ITC,R12 domain of RyR2,no detectable binding
same,Kd,R12 domain of RyR3; RyR3 R12 + 500 µM ADP,28.6 ± 18.7 µM
same,No of Sites (N),R12 domain of RyR3; RyR3 R12 + 500 µM ADP,0.509 ± 0.54
same,ΔH,R12 domain of RyR3; RyR3 R12 + 500 µM ADP,-26.8 ± 6.95 kJ/mol
same,−TΔS,R12 domain of RyR3; RyR3 R12 + 500 µM ADP,-1.13 kJ/mol
same,Kd,R12 domain of RyR3; RyR3 R12 + 500 µM AMP-PCP,7.85 ± 2.69 µM
same,No of Sites (N),R12 domain of RyR3; RyR3 R12 + 500 µM AMP-PCP,0.604 ± 0.31
same,ΔH,R12 domain of RyR3; RyR3 R12 + 500 µM AMP-PCP,-13.6 ± 1.67 kJ/mol
same,−TΔS,R12 domain of RyR3; RyR3 R12 + 500 µM AMP-PCP,-15.6 kJ/mol
same,Kd,R12 domain of RyR3; RyR3 R12 + 5 mM ADP,12.9 ± 6.2 µM
same,No of Sites (N),R12 domain of RyR3; RyR3 R12 + 5 mM ADP,0.694 ± 0.42
same,ΔH,R12 domain of RyR3; RyR3 R12 + 5 mM ADP,-49.8 ± 20.4 kJ/mol
same,−TΔS,R12 domain of RyR3; RyR3 R12 + 5 mM ADP,24.1 kJ/mol
same,Kd,R12 domain of RyR3; RyR3 R12 + 5 mM AMP-PCP,3.39 ± 0.83 µM
same,No of Sites (N),R12 domain of RyR3; RyR3 R12 + 5 mM AMP-PCP,0.508 ± 0.21
same,ΔH,R12 domain of RyR3; RyR3 R12 + 5 mM AMP-PCP,-19.2 ± 1.17 kJ/mol
same,−TΔS,R12 domain of RyR3; RyR3 R12 + 5 mM AMP-PCP,-12.1 kJ/mol
same,No of Sites (N),"R12 domain of RyR3; RyR3 R12, no nucleotide",0.970 ± 0.19
same,ΔH,"R12 domain of RyR3; RyR3 R12, no nucleotide",-67.8 ± 69.87 kJ/mol
same,−TΔS,"R12 domain of RyR3; RyR3 R12, no nucleotide",44.4 kJ/mol
same,Kd,"R12 domain of RyR3; RyR3 R12, no nucleotide, ITC 25 °C",178 ± 93.1 µM
